From patent US12215354B2, “Differentiation of human embryonic stem cells into single hormonal insulin positive cells” (Janssen Biotech, Inc., priority 2011, dated 2025)

Test system: human embryonic stem cell line H1
Experiment: Real-time PCR gene expression, dose of BMP inhibitor at S4 (Example 5)
Format: cell-based
Settings: 50 nM or 100 nM at days 1, 2, 3, or 4 of S4
Protocol: Cells of the human embryonic stem cell line H1 at various passages (passage 40 to passage 52) were seeded as single cells at a density of 100,000 cells/cm^2 on MATRIGEL™ (1:30 dilution) coated dishes in mTesr™1 media and 10 μM of Y27632. Forty eight hours post seeding, cultures were differentiated into pancreatic endocrine lineage as follows: • a. Stage 1 (Definitive Endoderm (DE)−4 days): Prior to start of DE, the cultures were washed and incubated with incomplete PBS (no Mg or Ca) for 30 seconds followed by addition of the stage 1 media. Human embryonic stem cells cultured as single cells on MATRIGEL™-coated dishes were treated with MCDB-131 medium supplemented with 0.1% fatty acid-free BSA, 0.0012 g/ml sodium bicarbonate, 1× GLUTAMAX™, 2.5 mM D-Glucose, 100 ng/ml GDF8, and 1 μM MCX compound (GSK3B inhibitor) for one day. Cells were then treated with MCDB-131 medium supplemented with 0.1% fatty acid-free BSA, 0.0012 g/ml sodium bicarbonate, 1× GLUTAMAX™, 2.5 mM glucose, and 100 ng/ml GDF8 for days 2-4. • b. Stage 2 (Primitive gut tube−3 days): Stage 1 cells were treated with MCDB-131 medium supplemented with 0.1% fatty acid-free BSA, 0.0012 g/ml sodium bicarbonate, 1× GLUTAMAX™, 2.5 mM D-Glucose, and 50 ng/ml FGF7 for three days. • c. […]

Structure (SMILES): c1ccc2c(-c3cnn4cc(-c5ccc(N6CCNCC6)cc5)cnc34)ccnc2c1 [LDN-193189]
- expression of endocrine markers: prolong
- expression of SOX2 (at S4-S5): low expression
